Reference: publication PMC3445454, “Broad and Cross-Clade CD4^+ T-Cell Responses Elicited by a DNA Vaccine Encoding Highly Conserved and Promiscuous HIV-1 M-Group Consensus Peptides” (PLoS ONE, 2012)
Where a chain is given by its changes, count along the chain named.

Legend:
[1] = molecular target: HLA-DR DRB3*01:01 (Homo sapiens, UniProt P01903+P79483); experiment: biochemical; type: binding
[2] = molecular target: HLA-DR DRB5*01:01 (Homo sapiens, UniProt P01903+Q30154); experiment: biochemical; type: binding
[3] = molecular target: T1, HLA-DP DPA1*01:03/DPB1*02:01 (Homo sapiens, UniProt P04440+P20036, A65V/A84D/A85E/K98E); experiment: biochemical; type: binding
T1 sequence (P20036 29-260): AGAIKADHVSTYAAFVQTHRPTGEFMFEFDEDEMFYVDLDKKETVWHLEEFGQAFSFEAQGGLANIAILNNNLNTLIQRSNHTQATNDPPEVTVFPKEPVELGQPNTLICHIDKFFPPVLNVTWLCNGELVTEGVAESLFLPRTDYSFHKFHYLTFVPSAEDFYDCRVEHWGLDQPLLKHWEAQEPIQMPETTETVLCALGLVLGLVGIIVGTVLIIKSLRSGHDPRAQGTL
T1 sequence (P04440 30-258 A65V/A84D/A85E/K98E): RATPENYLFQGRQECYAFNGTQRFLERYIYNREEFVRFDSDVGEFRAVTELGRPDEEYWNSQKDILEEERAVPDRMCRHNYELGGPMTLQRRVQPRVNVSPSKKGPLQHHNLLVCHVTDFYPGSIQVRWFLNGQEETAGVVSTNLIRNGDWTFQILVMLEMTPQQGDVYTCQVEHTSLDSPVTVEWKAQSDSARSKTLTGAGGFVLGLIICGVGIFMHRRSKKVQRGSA

[4] = molecular target: T2, HLA-DP DPA1*01:03/DPB1*03:01 (Homo sapiens, UniProt P04440+P20036, A65V/A84D/A85E/E86D/F38Y/G113D/G114E/G40L/I94L/L37V/M105V/M116V/P115A/R125K/T199I); experiment: biochemical; type: binding; details: read-out: Binding capacity/IC50 (nM) DPA1*01:03 DPB1*03:01
T2 sequence (P20036 29-260): T1 sequence (P20036 29-260)
T2 sequence (P04440 30-258 L37V/F38Y/G40L/A65V/A84D/A85E/E86D/I94L/M105V/G113D/G114E/P115A/M116V/R125K/T199I): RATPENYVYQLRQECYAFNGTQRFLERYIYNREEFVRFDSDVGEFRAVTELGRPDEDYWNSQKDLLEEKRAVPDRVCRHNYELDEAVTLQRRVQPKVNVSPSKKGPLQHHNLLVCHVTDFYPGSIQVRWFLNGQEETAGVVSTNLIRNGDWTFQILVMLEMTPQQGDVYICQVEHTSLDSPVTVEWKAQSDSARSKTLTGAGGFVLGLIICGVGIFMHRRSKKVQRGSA

[5] = molecular target: T3, HLA-DP DPA1*01:03/DPB1*04:01 (Homo sapiens, UniProt P04440+P20036); experiment: biochemical; type: binding
T3 sequence (P20036 29-260): T1 sequence (P20036 29-260)
T3 sequence (P04440 30-258): T1 sequence (P04440 30-258 A65V/A84D/A85E/K98E) with V36A, D55A, E56A, E69K

[6] = molecular target: T4, HLA-DP DPA1*02:01/DPB1*05:01 (Homo sapiens, UniProt P04440+P20036, A65V/A84E/F191V/F64L/G113D/G114E/K142R/L158P/M116V/M62Q/P115A/Q81R/R125K/T114A/T199I/T259P/V234M); experiment: biochemical; type: binding; details: read-out: Binding capacity/IC50 (nM) DPA1*02:01 DPB1*05:01
T4 sequence (P20036 29-260 A42M/M62Q/Q81R/T114A/K142R/L158P/F191V/T259P): T1 sequence (P20036 29-260) with A14M, M34Q, Q53R, T86A, K114R, L130P, F163V, T231P
T4 sequence (P04440 30-258 F64L/A65V/A84E/G113D/G114E/P115A/M116V/R125K/T199I/V234M): T2 sequence (P04440 30-258 L37V/F38Y/G40L/A65V/A84D/A85E/E86D/I94L/M105V/G113D/G114E/P115A/M116V/R125K/T199I) with V8L, Y9F, L11G, F35L, D55E, E56A, D57E, L65I, V76M, V205M

[7] = molecular target: T5, HLA-DP DPA1*02:01/DPB1*14:01 (Homo sapiens, UniProt P04440+P20036, A65V/A84D/A85E/E86D/F191V/F38H/G113D/G114E/G40L/I94L/K142R/L158P/L37V/M105V/M116V/M62Q/P115A/Q81R/R125K/T114A/T199I/T259P); experiment: biochemical; type: binding; details: read-out: Binding capacity/IC50 (nM) DPA1*02:01 DPB1*14:01
T5 sequence (P20036 29-260 A42M/M62Q/Q81R/T114A/K142R/L158P/F191V/T259P): T1 sequence (P20036 29-260) with A14M, M34Q, Q53R, T86A, K114R, L130P, F163V, T231P
T5 sequence (P04440 30-258 L37V/F38H/G40L/A65V/A84D/A85E/E86D/I94L/M105V/G113D/G114E/P115A/M116V/R125K/T199I/R223Q): T2 sequence (P04440 30-258 L37V/F38Y/G40L/A65V/A84D/A85E/E86D/I94L/M105V/G113D/G114E/P115A/M116V/R125K/T199I) with Y9H, R194Q

[8] = molecular target: T6, HLA-DP DPA1*01:03/DPB1*20:01 (Homo sapiens, UniProt P04440+P20036, A65V/A84D/A85E/E86D/F38Y/G113D/G114E/G40L/I94L/L37V/M116V/P115A/R125K/T199I); experiment: biochemical; type: binding; details: read-out: Binding capacity/IC50 (nM) DPA1*01:03 DPB1*20:01
T6 sequence (P20036 29-260): T1 sequence (P20036 29-260)
T6 sequence (P04440 30-258 L37V/F38Y/G40L/A65V/A84D/A85E/E86D/I94L/G113D/G114E/P115A/M116V/R125K/T199I/V234M): T2 sequence (P04440 30-258 L37V/F38Y/G40L/A65V/A84D/A85E/E86D/I94L/M105V/G113D/G114E/P115A/M116V/R125K/T199I) with V76M, V205M

[9] = molecular target: HLA-DP DPA1*02:01/DPB1*01:01 (Homo sapiens, UniProt P04440+P20036, F191V/F38Y/F64Y/G113D/G114E/K142R/L158P/L37V/M105V/M116V/M62Q/P115A/Q81R/R125K/R223Q/T114A/T199I/T259P); experiment: biochemical
Sequence of HLA-DP DPA1*02:01/DPB1*01:01 (P20036 29-260 A42M/M62Q/Q81R/T114A/K142R/L158P/F191V/T259P, other chains not shown): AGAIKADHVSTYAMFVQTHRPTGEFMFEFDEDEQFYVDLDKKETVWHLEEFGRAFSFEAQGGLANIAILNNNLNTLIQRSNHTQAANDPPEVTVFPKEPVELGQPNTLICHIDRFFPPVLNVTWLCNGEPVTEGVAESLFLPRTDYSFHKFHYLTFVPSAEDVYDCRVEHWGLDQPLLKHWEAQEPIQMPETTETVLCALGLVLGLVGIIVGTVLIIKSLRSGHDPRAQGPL

[10] = molecular target: HLA-DP DPA1*03:01/DPB1*04:02 (Homo sapiens, UniProt P04440+P20036, A42M/A65V/A84D/A85E/L207M/L97S); experiment: biochemical
[11] = system: splenocytes from HIVBr27 immunized mice; experiment: murine IFN-γ ELISPOT assay; type: in vivo; details: splenocytes of HIVBr27-immunized BALB/c mice, 5 µM peptide
Description: Six to eight week-old female BALB/c mice were used in this study. Six mice per group were injected intramuscularly, at weeks 0, 2 and 4, with HIVBr27 plasmid or empty pVAX1. Each quadriceps was injected with 50 µL of DNA at a concentration of 1 µg/µL in saline such that each animal received a total of 100 µg of plasmid DNA per immunization. Two weeks after the last DNA immunization, mice were euthanized with CO2.
Two weeks after the last immunization, mice were euthanized and spleens were removed aseptically. After obtaining single cell suspensions, cells were washed in 10 mL of RPMI 1640. Cells were then resuspended in R-10 (RPMI supplemented with 10% of fetal bovine serum (GIBCO), 2 mM L-glutamine (Life Technologies), 1 mM sodium pyruvate (Life Technologies), 1% vol/vol non-essential amino acids solution (Life Technologies), 1% vol/vol vitamin solution (Life Technologies), […] of Gentamicin, […] of Peflacin and 5×10^−5 M 2β-mercaptoetanol (Life Technologies). The viability of cells was evaluated using 0.2% Trypan Blue exclusion dye to discriminate between live and dead cells. Cell concentration was estimated with the aid of a Neubauer chamber and adjusted in cell culture medium. […]

Molecule `CSCC[C@H](NC(=O)[C@@H]1CCCN1C(=O)[C@H](CCCNC(=N)N)NC(=O)[C@H](CC(C)C)NC(=O)[C@@H]1CCCN1C(=O)[C@@H](NC(=O)[C@H](CCC(N)=O)NC(=O)[C@@H]1CCCN1C(=O)[C@H](CCCNC(=N)N)NC(=O)[C@@H](NC(=O)[C@@H]1CCCN1C(=O)[C@H](Cc1ccccc1)NC(=O)CN)C(C)C)C(C)C)C(=O)N[C@H](C(=O)N[C@@H](Cc1ccc(O)cc1)C(=O)N[C@@H](CCCCN)C(=O)NCC(=O)N[C@@H](C)C(=O)N[C@@H](Cc1ccccc1)C(=O)N[C@@H](CC(=O)O)C(=O)N[C@@H](CC(C)C)C(N)=O)[C@@H](C)O` [nef(67-87)] has an IC50 [1] of 6290 nM and an IC50 [2] of 191 nM.
`CC[C@H](C)[C@H](NC(=O)[C@H](CCSC)NC(=O)[C@@H](NC(=O)[C@H](CCC(N)=O)NC(=O)[C@H](Cc1c[nH]c2ccccc12)NC(=O)[C@H](CCCNC(=N)N)NC(=O)[C@H](CC(N)=O)NC(=O)[C@H](CCC(=O)O)NC(=O)[C@@H](N)CCSC)C(C)C)C(=O)N[C@H](C(=O)N[C@@H](Cc1c[nH]c2ccccc12)C(=O)N[C@@H](CCC(N)=O)C(=O)N[C@H](C(=O)N[C@@H](CC(=O)O)C(=O)N[C@@H](CCCNC(=N)N)C(N)=O)C(C)C)C(C)C` [vif(1-15)] showed an IC50 [3] of 1550 nM, an IC50 [4] of 5840 nM and an IC50 [5] of 13 nM. It also gave an IC50 [6] of 8170 nM, an IC50 [7] of 7240 nM and an IC50 [8] of 364 nM. The IC50 [9] was 1030 nM and the IC50 [10] was 3750 nM.
For EWEFVSTPPLVKLWY [RT(413-427) B subtype], the “IFN-γ secretion against variant compared to M-group consensus peptide” value [11] was “reduced”.
EWEYVNTPPLVKLWY [RT(413-427) D subtype] was tested, and the “IFN-γ secretion against variant compared to M-group consensus peptide” value [11] was “reduced”.
